How the values were obtained:
human recombinant NET = biological target: T1, human recombinant NET (Homo sapiens, UniProt P23975); experiment: [3H]-NE neurotransmitter uptake inhibition in HEK293-hNET cells; assay type: cell-based; details: human transporters
T1 construct: expressed in transfected cells; host or cells: HEK293
Excerpt: (§1) The in vitro pharmacology of 4-[2-(2,4,6-trifluorophenoxymethyl)phenyl]-piperidine at human recombinant and rat native monoamine transporters was characterized as described in Smith et al., Inter. J. Neuropsychopharmcol. (2015) 1-11; and Tsuruda et al., J. Pharmacol. Toxicol. Meth. (2010) 61:192-204. See also, e.g., U.S. Pat. No. 8,304,432 B2 and U.S. Pat. No. 8,304,433 B2. Radioligands were sourced commercially (Perkin Elmer LifeSciences or GE Healthcare Life Sciences).
(§2) Briefly, membranes prepared from HEK293 (Human Embryonic Kidney 293) or CHO-K1 (Chinese Hamster Ovary-K1) cells stably transfected with human recombinant SERT (HEK293-hSERT), NET (HEK293-hNET), or DAT (CHO-KT-hDAT) were incubated for 1 hr at 22° C. in the absence, or presence, of 4-[2-(2,4,6-trifluorophenoxymethyl)phenyl]piperidine and [^3H]-citalopram (1.0 nM) for SERT, [^3H]-nisoxetine (2.0 nM) for NET, and [^3H]-WIN35428 (3.0 nM) for DAT in 50 mM Tris-HCl, 120 mM NaCl, 5 mM KCl, 0.025% BSA, 100 μM ascorbic acid, pH 7.4. Rat cortical membrane preparations were incubated with [^3H]-citalopram (2.0 nM) for SERT or [3H]-nisoxetine (4.0 nM) for NET for 1 hr at 22° C. […] Binding and uptake assays were terminated by rapid filtration and radioactivity determined by liquid scintillation spectroscopy.

rat native NET = experiment: [3H]-NE uptake inhibition in rat cortical synaptosomes; assay type: biochemical
Excerpt: as §1, §2

SERT = biological target: T2, SERT (Rattus norvegicus, UniProt P31652); experiment: Ex vivo transporter occupancy in rat spinal cord (PK/PD model), SERT
T2 construct: Spinal cords were dissected for ex vivo transporter occupancy and PK assessments from the same animals; from tissue; host or cells: lumbar spinal cord of orally dosed male Sprague Dawley rats
T2 sequence (P31652 whole entry): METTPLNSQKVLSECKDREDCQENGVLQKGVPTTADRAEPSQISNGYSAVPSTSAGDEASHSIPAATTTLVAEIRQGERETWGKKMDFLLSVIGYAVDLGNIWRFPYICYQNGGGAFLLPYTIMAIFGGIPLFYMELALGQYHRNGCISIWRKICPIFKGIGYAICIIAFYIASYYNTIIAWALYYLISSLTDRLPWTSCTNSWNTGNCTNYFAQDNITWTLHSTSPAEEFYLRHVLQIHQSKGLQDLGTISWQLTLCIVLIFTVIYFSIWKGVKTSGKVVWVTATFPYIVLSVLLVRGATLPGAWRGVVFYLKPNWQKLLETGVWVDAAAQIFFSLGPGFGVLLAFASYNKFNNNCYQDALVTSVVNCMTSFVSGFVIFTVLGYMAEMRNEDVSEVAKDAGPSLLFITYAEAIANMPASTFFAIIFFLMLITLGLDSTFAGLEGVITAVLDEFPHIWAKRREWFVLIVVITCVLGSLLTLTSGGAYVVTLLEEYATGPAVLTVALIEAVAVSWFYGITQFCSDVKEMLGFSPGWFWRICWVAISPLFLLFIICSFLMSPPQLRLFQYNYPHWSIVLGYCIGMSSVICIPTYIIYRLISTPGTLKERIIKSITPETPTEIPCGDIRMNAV
Description: (§3) Adult male Sprague Dawley rats (Charles River) were housed under controlled laboratory conditions (temperature at 21±1° C.) on a 12:12 hour light-dark cycle. Animals were given free access to food and water upon arrival to the facility and animals were acclimatized to their holding room for at least 48 hours. Animals were fasted but allowed free access to water for 15-18 hours prior to dosing.
(§4) Rats (n=6/timepoint/dose level) received a single oral dose of 4-[2-(2,4,6-trifluorophenoxymethyl)phenyl]piperidine (0.3, 1, 5, 10, 30, and 60 mg/kg) and were euthanized by decapitation at specified time points (0.5, 2, 4, 6, and 8 hr for 5 mg/kg dose level; 2 hr for 0.3, 1, 10, 30, and 60 mg/kg dose levels) post-administration. Spinal cords were dissected for ex vivo transporter occupancy and PK assessments from the same animals. The spinal cord was harvested by hydraulic extrusion using phosphate-buffered saline, and the lumbar segment dissected and frozen on dry ice. The remaining spinal cord segments were collected and homogenized in water (25% w/w) for PK analysis. All samples were stored at −80° C. until analysis.
A kinetic radioligand binding assay was used to determine NET and SERT occupancy in rat spinal cord, as described previously in Bourdet et al., J. Pharm. Exp. Ther. (2012) 341:137-145. […] One- and two-compartment PK models with first-order absorption and elimination were evaluated. […]

NET = NET (Rattus norvegicus, UniProt Q9WTR4); experiment: Ex vivo transporter occupancy in rat spinal cord (PK/PD model), NET; details: estimate (% CV)
NET, sequence (Q9WTR4 1-597): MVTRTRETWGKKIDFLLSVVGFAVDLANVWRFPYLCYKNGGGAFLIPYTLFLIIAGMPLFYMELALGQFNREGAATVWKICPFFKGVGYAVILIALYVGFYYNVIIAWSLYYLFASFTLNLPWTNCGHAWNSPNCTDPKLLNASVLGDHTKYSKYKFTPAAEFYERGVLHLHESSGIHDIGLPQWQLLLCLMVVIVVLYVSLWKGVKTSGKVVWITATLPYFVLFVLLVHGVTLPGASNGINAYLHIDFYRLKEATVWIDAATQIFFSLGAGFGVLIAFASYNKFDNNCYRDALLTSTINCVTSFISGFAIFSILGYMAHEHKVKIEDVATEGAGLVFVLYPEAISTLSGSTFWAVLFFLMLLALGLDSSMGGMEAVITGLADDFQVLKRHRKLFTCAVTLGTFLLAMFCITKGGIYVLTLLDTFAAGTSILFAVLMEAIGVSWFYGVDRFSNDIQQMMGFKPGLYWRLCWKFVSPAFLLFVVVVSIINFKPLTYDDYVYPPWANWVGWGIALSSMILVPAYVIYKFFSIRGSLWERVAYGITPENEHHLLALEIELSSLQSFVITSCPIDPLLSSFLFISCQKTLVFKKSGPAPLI
Description: as §3, §4
(§5) A kinetic radioligand binding assay was used to determine NET and SERT occupancy in rat spinal cord, as described previously in Bourdet et al., J. Pharm. Exp. Ther. (2012) 341:137-145. PK/PD parameters were estimated by a compartmental modeling approach (WinNonlin Version 5.0.1, Pharsight Corporation). One- and two-compartment PK models with first-order absorption and elimination were evaluated. The one-compartment model was selected. The pharmacodynamics model was an effect compartment Emax model linked directly to the central PK compartment (WinNonlin PK Model 3, PD Model 101). Selection of models was based upon best fit in terms of visual inspection, Akaike Information Criteria, and weighted residual sum of squares using the Gauss-Newton minimization method.

[1] = Rat oral pharmacokinetics, one-compartment model; assay type: in vivo; details: estimate (% CV)
Description: as §3, §4, §5

[2] = Plasma protein binding, rat; assay type: in vitro ADME
[3] = Plasma protein binding, human; assay type: in vitro ADME
[4] = test system: tyramine pressor response; experiment: Cardiovascular model in anesthetized rat: inhibition of tyramine pressor response; assay type: in vivo; details: iv, read-out: estimated potency for inhibition of tyramine-induced increase in SBP (Tyr EC50)
CYP3A4 = CYP3A4 (Homo sapiens, UniProt P08684); details: cited from earlier work
CYP3A4, sequence (P08684 whole entry): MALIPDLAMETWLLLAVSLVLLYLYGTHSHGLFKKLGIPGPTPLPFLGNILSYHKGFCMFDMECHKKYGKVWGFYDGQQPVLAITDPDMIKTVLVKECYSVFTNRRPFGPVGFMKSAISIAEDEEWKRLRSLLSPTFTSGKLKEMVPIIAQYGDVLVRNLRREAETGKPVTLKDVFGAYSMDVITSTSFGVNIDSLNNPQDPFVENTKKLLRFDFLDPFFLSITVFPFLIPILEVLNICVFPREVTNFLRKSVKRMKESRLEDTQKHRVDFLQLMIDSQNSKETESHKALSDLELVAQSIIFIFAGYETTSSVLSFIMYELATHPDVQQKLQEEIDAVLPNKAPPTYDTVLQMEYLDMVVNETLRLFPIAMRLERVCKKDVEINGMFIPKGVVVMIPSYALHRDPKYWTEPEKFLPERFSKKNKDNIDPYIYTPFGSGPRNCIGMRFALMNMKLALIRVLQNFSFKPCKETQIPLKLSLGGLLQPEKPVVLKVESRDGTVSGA

CYP1A2 = biological target: T3, CYP1A2 (Homo sapiens, UniProt P05177); details: cited from earlier work
T3 sequence (P05177 1-516): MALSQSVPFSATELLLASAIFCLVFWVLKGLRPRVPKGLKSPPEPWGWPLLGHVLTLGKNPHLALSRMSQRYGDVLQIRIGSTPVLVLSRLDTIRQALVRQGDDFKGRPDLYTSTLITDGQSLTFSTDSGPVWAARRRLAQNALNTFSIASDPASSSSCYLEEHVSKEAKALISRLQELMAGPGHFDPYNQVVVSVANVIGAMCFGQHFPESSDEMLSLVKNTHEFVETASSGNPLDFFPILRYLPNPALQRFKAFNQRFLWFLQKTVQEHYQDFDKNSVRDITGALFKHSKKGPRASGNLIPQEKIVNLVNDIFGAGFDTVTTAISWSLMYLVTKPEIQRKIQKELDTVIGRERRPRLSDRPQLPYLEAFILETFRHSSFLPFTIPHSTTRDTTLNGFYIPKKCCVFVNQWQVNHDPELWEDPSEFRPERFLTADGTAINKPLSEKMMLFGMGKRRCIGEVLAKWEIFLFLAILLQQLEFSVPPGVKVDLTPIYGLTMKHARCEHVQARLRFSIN

T1 sequence (P23975 whole entry): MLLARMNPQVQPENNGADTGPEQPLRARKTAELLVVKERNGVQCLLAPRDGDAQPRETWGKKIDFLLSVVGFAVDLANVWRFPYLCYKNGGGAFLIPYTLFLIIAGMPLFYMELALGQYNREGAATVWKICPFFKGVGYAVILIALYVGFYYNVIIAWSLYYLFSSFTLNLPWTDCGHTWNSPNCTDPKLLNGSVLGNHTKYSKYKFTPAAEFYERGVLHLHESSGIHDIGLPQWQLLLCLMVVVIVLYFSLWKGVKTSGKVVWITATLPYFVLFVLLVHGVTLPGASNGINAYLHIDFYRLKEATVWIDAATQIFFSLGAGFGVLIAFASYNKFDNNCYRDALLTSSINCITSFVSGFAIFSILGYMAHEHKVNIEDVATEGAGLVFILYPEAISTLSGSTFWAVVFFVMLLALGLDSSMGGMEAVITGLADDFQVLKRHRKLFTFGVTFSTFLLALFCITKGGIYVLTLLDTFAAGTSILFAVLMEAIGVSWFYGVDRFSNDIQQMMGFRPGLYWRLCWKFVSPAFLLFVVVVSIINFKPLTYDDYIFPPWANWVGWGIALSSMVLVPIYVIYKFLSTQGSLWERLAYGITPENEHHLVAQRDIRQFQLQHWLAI

Fc1cc(F)c(OCc2ccccc2C2CCNCC2)c(F)c1 [4-[2-(2,4,6-trifluorophenoxymethyl)phenyl]piperidine]
higher potency for inhibition of NET over SERT (human recombinant NET): 4 fold
apparent functional selectivity for NET over SERT (rat native NET): 10 fold
EC50 (SERT; projected from rat, accounting for species differences in plasma protein binding): 74.4 nM
keo (first-order equilibration rate constant), SERT (SERT; rat, estimate (% CV)): 11.0 (86) hr^−1
Emax (% occupancy), NET (NET; rat spinal cord, single oral dose): 92.0 (19) % occupancy
EC50 (NET; rat spinal cord): 36.4 nM
keo (first-order equilibration rate constant), NET (NET; rat): 1.78 (57) hr^−1
V/F (volume of the central compartment divided by oral bioavailability) [1]: 54.8 (66) L/kg
k01 (first-order absorption rate constant) [1]: 0.777 (108) hr^−1
k10 (elimination rate constant from the central compartment) [1]: 0.319 (81) hr^−1
fraction unbound [2]: 0.098
fraction unbound [3]: 0.209
EC50 [4]: 0.86 nM
reduction of metabolism by chemical inhibition of CYP3A4 (CYP3A4): 34%
reduction of metabolism by chemical inhibition of CYP1A2 (CYP1A2): 25%

Reference: patent US10238642B2, “Methods for treating neurogenic orthostatic hypotension” (Theravance Biopharma R&D IP, LLC, priority 2016, dated 2019)
